The source of these data is paper PMC7614687, “Modulation of the substrate specificity of the kinase PDK1 by distinct conformations of the full-length protein*” (Science signaling, 2023).

Several values for one entry are separate records, joined by “and”; a condition that tells them apart may be missing. Equal values may be shown once. Read-outs that look alike come from different tables or passages of the source.

Assay [1] deals with T1, GST-PDK1_1-556 (Homo sapiens, UniProt O15530).
T1 construct: made in house; host or cells: HEK293 cells (transient transfection of pEBG2T); peptide synthesized by Pepscan
T1 sequence (O15530 1-556): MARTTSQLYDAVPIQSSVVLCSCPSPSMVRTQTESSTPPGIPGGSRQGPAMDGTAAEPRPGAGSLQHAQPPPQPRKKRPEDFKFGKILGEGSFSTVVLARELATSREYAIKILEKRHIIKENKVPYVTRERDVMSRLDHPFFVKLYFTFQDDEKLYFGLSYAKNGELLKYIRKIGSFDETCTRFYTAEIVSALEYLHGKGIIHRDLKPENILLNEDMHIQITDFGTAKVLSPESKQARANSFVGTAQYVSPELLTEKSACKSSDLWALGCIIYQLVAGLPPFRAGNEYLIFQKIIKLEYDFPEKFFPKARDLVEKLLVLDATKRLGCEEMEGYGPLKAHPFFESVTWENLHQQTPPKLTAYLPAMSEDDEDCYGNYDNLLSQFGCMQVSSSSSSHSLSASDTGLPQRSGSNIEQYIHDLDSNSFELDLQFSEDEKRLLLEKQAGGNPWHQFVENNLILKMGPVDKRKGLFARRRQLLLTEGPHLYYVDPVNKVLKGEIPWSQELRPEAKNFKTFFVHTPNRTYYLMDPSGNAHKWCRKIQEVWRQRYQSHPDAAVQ
As to the kind of experiment: AlphaScreen biotin-PIP3 / GST-PDK1_1-556 displacement. The settings on record: PIP3 20 nM, GST-PDK1 3 nM. The format is binding. The method, then: The AlphaScreen® assay was performed following the general guidelines from the manufacturer (Perkin Elmer) ([29]). In short, the assay was performed in a final volume of 25 μl in white 384-well microtiter plates (Greiner) in a standard buffer containing 50 mM Tris-HCl (pH 7.4), 100 mM NaCl, 2 mM DTT, 0.01% (v/v) Tween-20 and 0.1% (w/v) BSA, with the addition of 5 μl of beads (anti-GST coated acceptor beads and streptavidin-coated donor beads; nickel chelate-coated acceptor beads and streptavidin-coated donor beads; or nickel chelate-coated acceptor beads and GSH-coated donor beads, 20 μg/ml final concentrations for each bead type). AlphaScreen assays for His-tagged proteins and GST-fusion proteins were performed using nickel chelate-coated acceptor beads and GSH-coated donor beads; alphascreen assays for His-tagged proteins and biotinylated molecules were performed using nickel chelate-coated acceptor beads and streptavidin-coated donor beads; alphascreen assays for GST-fusion proteins and biotinylated molecules were performed using anti-GST coated acceptor beads and streptavidin-coated donor beads (Perkin Elmer).
The conditions for each AlphaScreen assay were identified in cross-titration experiments for each interaction to choose the ideal pair of concentrations within the linear range of the interactions. As required, the standard conditions were modified to use less material, to increase binding of the interacting molecules, to lower background signal, and so on. His-PDK1 and GST-fusion protein in the presence or absence of the different compounds were incubated in the dark for 60 min at room temperature and the emission of light from the acceptor beads was measured in an EnVision reader (Perkin Elmer) or Spark plate reader (Tecan). AlphaScreen assays were performed at least twice, although most experiments were performed multiple times by different researchers with different batches of purified proteins with similar results.
Biotin-PIP3 interactions with GST-PDK1_1-556 or GST-PDK1_360-556 were assessed in the standard buffer. […]
(In Alpha technology, singlet oxygen from a donor bead excites a nearby acceptor bead.)

Assay [2] has as its target T2, PDK1 (Homo sapiens, UniProt O15530).
T2 sequence (O15530 1-556): T1 sequence (O15530 1-556)
As to the kind of experiment: Thermo Fisher "PDK1 Direct" assay (peptide Ser/Thr 07, FRET readout). The settings on record: for Hill slope, PDK1 direct / IC50: 10-point titration. The format is biochemical.

For assay [3], the target named is T3, His-PDK1_1-556 and GST-PDK1_360-556 (Homo sapiens, UniProt O15530).
T3 construct: made in house; host or cells: Sf9 insect cells (His-PDK1_1-556); HEK293 cells (GST-PDK1_360-556)
T3 sequence (O15530 1-556): T1 sequence (O15530 1-556)
Kind of assay: AlphaScreen PDK1 dimerization assay His-PDK1_1-556 / GST-PDK1_360-556. Format: binding.

Assay [4] has as its target T4, PDK1_1-556 (Homo sapiens, UniProt O15530).
T4 construct: effect of HYG8 on the thermal stability (ΔTm) of PDK1_1-556 (H) and PDK1_50-359 (I); His (N); made in house; host or cells: Sf9 insect cells (baculovirus)
T4 sequence (O15530 1-556): T1 sequence (O15530 1-556)
As to the kind of experiment: Differential scanning fluorimetry, thermal stability of PDK1_1-556. Format: binding. To be noted: PDK1 1 μM. Background: Differential scanning fluorimetry follows unfolding on heating by fluorescence.

[5] abbreviates: replicate point 1, read-out: % Inhibition Point 1.
[6] abbreviates: replicate point 2, read-out: % Inhibition Point 2.
Setting [7] is: single point, N=2, read-out: Inhibition at 1 μM (%).
Where [8] appears, read: absence of PIFtide, read-out: IC50 (nM), displacement of His-PDK1_1-556 interaction with GST-PDK1_360-556.
Where [9] appears, read: with PIFtide, read-out: IC50 (nM), displacement of His-PDK1_1-556 interaction with GST-PDK1_360-556 with PIFtide.

For the compound `O=C(O[C@H]1[C@@H](OP(=O)(O)O)[C@H](OP(=O)(O)O)[C@@H](OP(=O)(O)O)[C@H](OP(=O)(O)O)[C@H]1OP(=O)(O)O)c1ccccc1` [HYG8, 2-O-benzoyl-IP5], the “displacement of PIP3 from GST-PDK1_1-556” value in assay [1] is recorded as “higher potency than IP5”. Also, the inhibition at 1 µM in assay [2] (setting [5]) was found to be 97%; in assay [2] (setting [6]) it was 98%; in assay [2] (setting [7]), 98%. Also, the “Hill slope, PDK1 direct” value in assay [2] turned out to be 1.39. Besides, the half-maximal inhibitory concentration (IC50) in assay [2] came out at 24.5 nM; in assay [3] (setting [8]), 33.3 nM; in assay [3] (setting [9]), 19.5 nM. Moreover, the “Tm (°C), temperature stabilization of PDK1_1-556” value in assay [4] (compound 1 µM) was 11.7 °C and 11-15 °C; in assay [4] (compound 20 µM), 13.7 °C and 13-16 °C.

On to `CCCCO[C@H]1[C@@H](OP(=O)(O)O)[C@H](OP(=O)(O)O)[C@@H](OP(=O)(O)O)[C@H](OP(=O)(O)O)[C@H]1OP(=O)(O)O` [HYG14, 2-O-butyl-IP5], for which the “displacement of PIP3 from GST-PDK1_1-556” value in assay [1] is given as “almost completely displaced”. The figures for the inhibition at 1 µM in assay [2] (setting [5]), in assay [2] (setting [6]) and in assay [2] (setting [7]) were 98%, 101% and 100%, respectively. For the same compound, the “Hill slope, PDK1 direct” value in assay [2] is 1.61. Besides, the IC50 in assay [2] amounted to 16.2 nM; in assay [3] (setting [8]), 29.6 nM; in assay [3] (setting [9]) it was 29.4 nM. The “Tm (°C), temperature stabilization of PDK1_1-556” value in assay [4] (compound 1 µM) was 15.2 °C and 11-15 °C; in assay [4] (compound 20 µM), 16.5 °C and 13-16 °C.

A word on the inhibition: it is the change of the read-out against control, counted positive when it falls. For orientation: IC50 means the concentration needed to halve the response being measured.
